According to ChEMBL document CHEMBL1201862, “PubChem BioAssay data set” (2004):
Activity calls are given as the source filed them.

How the values were obtained:
[1] = target: G-protein coupled receptor 55 (Homo sapiens, UniProt Q9Y2T6); test: inhibition of LPI-stimulated GPR55 beta-arrestin translocation – imaging, U2OS, beta-arrestin-GFP, LPI agonist, primary screen (AID 2013); format: functional;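 note: antagonist potency measured as reduced agonist-driven arrestin aggregation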
[2] = target: T1, Heat shock factor protein 1 (Mus musculus, UniProt P38532); test: enhancement of HSF1-driven luciferase signal – cell-based, NIH3T3, luminescence, dose retest, confirmation (AID 435004); format: functional;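 note: stress induced by proteasome inhibitor MG132 added 30 min after compound; luciferase reporter driven by HSF1 response element in NIH3T3 cells; actives raise luminescence as potentiators of the MG132 stress response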
T1 sequence (P38532 whole entry): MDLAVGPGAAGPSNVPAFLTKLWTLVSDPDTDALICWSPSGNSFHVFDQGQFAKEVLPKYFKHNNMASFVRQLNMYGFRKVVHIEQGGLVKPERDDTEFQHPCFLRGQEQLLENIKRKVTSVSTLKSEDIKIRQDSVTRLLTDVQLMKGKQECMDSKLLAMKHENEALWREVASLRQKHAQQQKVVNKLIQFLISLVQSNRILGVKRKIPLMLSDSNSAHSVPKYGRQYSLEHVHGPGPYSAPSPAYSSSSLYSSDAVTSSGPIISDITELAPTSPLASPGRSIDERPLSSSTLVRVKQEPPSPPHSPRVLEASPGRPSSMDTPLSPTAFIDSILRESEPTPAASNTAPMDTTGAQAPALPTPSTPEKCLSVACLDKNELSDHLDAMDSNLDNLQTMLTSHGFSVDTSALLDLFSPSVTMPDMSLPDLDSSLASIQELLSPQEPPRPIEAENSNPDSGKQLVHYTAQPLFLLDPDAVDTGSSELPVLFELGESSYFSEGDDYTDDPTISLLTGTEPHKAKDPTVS

[3] = target: Heat shock protein HSP 90-alpha (Homo sapiens, UniProt P07900); format: functional, organism-based
[4] = Trypanosoma cruzi growth suppression in host cells – NIH3T3 host cells, beta-gal luminescence, confirmation (AID 2044); format: functional, cell-based;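 note: intracellular parasites grown in NIH/3T3 mouse fibroblasts as host cells; luminescent beta-galactosidase reporter signal from transgenic T. cruzi replicating inside host cells; inhibitors lower the luminescence signal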
[5] = NIH3T3 cell viability loss – ATP luminescence, mouse fibroblasts, counter-screen, dose response (AID 2010); format: functional, cell-based;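 note: cells exposed to compound for about 90 hours before reading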
[6] = THP-1 cell cytotoxicity, dose response, cytotoxicity control for non-replicating M. tuberculosis project (AID 489025); format: functional
[7] = HepG2 cell cytotoxicity, dose response, cytotoxicity control for non-replicating M. tuberculosis project (AID 489018); format: functional; conditions: Mycobacterium tuberculosis
[8] = Vero E6 cell cytotoxicity, dose response, cytotoxicity control for non-replicating M. tuberculosis project, secondary assay (AID 492998); format: functional, VeroE6; conditions: Vero C1008
[9] = cells; format: functional
[10] = target: T2, High affinity choline transporter 1 (Homo sapiens, UniProt Q9GZV3); test: human choline transporter blockers, potency – cell-based, 5-point CRC, membrane potential dye, dose response (AID 504840); format: functional
T2 sequence (Q9GZV3 whole entry): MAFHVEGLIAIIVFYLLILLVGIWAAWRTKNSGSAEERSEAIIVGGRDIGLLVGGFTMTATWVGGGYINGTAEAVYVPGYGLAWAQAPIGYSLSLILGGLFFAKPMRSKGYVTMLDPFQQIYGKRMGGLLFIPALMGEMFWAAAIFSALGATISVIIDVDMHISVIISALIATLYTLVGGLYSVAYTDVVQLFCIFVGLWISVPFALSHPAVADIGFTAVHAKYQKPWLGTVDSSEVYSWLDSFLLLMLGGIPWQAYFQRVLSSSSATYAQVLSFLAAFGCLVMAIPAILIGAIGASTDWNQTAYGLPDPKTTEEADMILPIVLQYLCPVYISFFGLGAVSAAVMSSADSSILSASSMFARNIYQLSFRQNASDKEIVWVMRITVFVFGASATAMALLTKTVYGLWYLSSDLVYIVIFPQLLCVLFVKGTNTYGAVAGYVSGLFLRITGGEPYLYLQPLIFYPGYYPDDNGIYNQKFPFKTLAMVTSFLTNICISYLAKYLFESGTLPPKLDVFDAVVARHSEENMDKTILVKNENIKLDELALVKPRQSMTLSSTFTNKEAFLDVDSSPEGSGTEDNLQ

[11] = target: T3, Nucleotide-binding oligomerization domain-containing protein 1 (Homo sapiens, UniProt Q9Y239); test: SAR analysis of compounds that inhibit NOD1 - Set 3. [Related pubchem assays (depositor defined):AID1566, AID1575, AID1578, AID1849, AID1852, AID2333, AID2335, AID2466]; format: functional
T3 sequence (Q9Y239 whole entry): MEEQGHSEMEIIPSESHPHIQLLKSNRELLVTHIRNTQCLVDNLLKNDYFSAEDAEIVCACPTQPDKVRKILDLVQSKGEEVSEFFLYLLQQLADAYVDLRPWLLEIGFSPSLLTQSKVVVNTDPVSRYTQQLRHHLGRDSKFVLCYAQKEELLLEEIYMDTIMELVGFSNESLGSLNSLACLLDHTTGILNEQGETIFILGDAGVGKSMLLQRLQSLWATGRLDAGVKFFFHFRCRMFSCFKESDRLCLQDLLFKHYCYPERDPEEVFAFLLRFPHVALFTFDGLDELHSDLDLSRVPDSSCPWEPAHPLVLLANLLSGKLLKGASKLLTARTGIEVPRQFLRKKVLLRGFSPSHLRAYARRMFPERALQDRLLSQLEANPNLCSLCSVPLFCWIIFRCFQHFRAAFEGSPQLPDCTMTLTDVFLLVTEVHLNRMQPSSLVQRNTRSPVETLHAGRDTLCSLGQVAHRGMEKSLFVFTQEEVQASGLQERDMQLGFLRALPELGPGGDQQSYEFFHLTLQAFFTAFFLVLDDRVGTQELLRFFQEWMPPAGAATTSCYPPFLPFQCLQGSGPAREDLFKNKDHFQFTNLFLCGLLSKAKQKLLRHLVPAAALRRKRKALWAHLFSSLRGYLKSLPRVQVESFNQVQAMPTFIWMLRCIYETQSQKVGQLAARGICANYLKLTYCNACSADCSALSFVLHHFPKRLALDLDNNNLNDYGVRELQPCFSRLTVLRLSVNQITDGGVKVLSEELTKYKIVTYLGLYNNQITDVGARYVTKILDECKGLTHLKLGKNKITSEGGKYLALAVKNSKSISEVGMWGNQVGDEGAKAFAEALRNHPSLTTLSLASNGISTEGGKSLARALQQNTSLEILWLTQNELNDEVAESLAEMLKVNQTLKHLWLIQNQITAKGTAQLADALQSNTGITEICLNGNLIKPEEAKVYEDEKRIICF

[12] = target: Tumor necrosis factor (Homo sapiens, UniProt P01375); test: analog potency on TNFa NF-kB signaling – cell-based, set 3, SAR follow-up (AID 2801); format: functional
Sequence of Tumor necrosis factor (P01375 whole entry): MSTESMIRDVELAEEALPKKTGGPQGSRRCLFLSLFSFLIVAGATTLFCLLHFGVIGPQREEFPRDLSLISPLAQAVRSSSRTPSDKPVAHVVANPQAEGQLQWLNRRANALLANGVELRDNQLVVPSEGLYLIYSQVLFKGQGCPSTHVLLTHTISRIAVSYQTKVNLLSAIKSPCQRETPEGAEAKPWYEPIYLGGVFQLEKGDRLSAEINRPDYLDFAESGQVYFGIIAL

[13] = system: HEK293; test: SAR analysis of compounds that are cytotoxic to HEK293 - Set 3. [Related pubchem assays (depositor defined):AID1575, AID1578, AID1848, AID1849, AID2001, AID2333, AID2334, AID2335, AID2337, AID2469]; format: functional, cell-based; conditions: Homo sapiens
[14] = target: Nucleotide-binding oligomerization domain-containing protein 2 (Homo sapiens, UniProt Q9HC29); test: inhibition of MDP-driven NOD2 NF-kB reporter – cell-based, set 3, SAR follow-up (AID 2799); format: functional
Sequence of Nucleotide-binding oligomerization domain-containing protein 2 (Q9HC29 whole entry, the tested form may be a part): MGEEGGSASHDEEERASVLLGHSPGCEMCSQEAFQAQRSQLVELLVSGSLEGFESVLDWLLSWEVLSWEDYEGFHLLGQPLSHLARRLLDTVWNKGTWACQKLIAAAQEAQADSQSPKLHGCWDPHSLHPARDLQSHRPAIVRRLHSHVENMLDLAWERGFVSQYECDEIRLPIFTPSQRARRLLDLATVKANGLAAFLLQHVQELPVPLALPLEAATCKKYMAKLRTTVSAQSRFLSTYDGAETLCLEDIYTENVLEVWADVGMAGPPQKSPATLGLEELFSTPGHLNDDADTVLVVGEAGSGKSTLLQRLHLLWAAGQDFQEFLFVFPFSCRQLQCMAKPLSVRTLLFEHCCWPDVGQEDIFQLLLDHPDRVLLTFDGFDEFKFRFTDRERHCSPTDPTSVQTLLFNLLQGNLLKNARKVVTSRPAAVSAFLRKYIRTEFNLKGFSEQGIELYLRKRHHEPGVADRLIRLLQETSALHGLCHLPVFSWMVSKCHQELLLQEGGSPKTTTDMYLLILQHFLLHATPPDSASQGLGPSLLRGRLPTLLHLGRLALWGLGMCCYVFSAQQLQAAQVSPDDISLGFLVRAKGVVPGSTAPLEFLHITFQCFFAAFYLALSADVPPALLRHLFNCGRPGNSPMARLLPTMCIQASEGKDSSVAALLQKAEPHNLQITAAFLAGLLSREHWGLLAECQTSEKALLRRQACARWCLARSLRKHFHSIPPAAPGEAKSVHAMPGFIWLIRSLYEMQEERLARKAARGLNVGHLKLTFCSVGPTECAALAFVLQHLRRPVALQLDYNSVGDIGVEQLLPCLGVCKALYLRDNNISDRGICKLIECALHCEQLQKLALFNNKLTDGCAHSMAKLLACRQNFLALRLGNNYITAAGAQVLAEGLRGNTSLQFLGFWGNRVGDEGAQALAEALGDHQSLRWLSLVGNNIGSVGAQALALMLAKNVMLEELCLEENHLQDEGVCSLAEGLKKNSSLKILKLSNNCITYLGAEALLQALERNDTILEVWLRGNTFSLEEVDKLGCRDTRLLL

[15] = target: T4, Coagulation factor XII (Homo sapiens, UniProt P00748); format: functional;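 note: activated factor XIIa alpha cleaving a fluorogenic AMC peptide substrate; inhibitor potency from loss of enzyme activity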
T4 sequence (P00748 whole entry): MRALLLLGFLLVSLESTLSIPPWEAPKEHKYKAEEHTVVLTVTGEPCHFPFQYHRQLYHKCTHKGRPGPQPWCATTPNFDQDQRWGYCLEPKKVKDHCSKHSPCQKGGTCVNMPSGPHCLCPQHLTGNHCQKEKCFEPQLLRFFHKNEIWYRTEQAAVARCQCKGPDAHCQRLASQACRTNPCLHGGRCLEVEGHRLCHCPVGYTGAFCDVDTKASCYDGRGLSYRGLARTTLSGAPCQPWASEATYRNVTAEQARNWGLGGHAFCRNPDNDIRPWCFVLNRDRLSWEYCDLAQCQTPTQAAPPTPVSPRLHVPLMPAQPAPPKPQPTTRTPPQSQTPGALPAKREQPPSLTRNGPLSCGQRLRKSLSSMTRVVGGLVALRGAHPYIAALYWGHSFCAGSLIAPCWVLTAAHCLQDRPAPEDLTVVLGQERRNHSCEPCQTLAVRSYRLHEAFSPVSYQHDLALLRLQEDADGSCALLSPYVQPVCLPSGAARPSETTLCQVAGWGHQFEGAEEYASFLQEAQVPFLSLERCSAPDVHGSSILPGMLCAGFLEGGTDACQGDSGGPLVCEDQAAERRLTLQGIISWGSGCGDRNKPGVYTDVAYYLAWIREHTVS

[16] = target: Alkaline phosphatase, placental type (Homo sapiens, UniProt P05187); test: human placental alkaline phosphatase inhibition – biochemical, luminescence, confirmation (AID 1512); format: functional
Sequence of Alkaline phosphatase, placental type (P05187 whole entry): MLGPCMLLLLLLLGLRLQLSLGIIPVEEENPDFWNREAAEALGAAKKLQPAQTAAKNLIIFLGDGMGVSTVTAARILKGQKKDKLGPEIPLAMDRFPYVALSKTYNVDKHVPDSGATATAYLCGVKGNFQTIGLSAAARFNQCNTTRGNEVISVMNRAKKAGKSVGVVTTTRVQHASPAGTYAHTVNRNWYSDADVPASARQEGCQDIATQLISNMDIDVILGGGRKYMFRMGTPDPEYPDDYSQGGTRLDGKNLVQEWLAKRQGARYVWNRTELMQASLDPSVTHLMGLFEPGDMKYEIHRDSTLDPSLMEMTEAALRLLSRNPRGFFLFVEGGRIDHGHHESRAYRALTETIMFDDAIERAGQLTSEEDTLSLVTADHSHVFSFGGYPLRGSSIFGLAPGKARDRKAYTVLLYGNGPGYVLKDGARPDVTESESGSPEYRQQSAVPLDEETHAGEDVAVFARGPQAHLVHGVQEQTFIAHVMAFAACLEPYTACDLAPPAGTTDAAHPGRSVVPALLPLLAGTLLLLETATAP

[17] = target: T5, Alkaline phosphatase, tissue-nonspecific isozyme (Homo sapiens, UniProt P05186); test: potency against alkaline phosphatase TNAP – biochemical, luminescent, dose response, SAR follow-up (AID 1056)
T5 sequence (P05186 whole entry): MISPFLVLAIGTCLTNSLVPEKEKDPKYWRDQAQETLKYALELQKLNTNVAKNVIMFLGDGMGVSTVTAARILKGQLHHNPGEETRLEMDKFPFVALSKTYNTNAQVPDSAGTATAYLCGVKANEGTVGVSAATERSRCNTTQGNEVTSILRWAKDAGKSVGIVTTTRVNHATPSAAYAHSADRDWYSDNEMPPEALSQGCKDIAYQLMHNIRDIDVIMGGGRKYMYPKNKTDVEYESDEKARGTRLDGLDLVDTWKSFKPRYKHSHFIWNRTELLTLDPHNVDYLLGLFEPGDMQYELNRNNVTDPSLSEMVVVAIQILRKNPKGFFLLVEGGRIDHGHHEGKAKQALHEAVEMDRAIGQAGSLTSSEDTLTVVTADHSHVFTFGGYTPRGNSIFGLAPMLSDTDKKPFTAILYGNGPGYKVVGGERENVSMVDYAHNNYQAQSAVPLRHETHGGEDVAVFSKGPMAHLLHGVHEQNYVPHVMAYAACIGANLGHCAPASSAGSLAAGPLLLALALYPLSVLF

Sequence of G-protein coupled receptor 55 (Q9Y2T6 whole entry): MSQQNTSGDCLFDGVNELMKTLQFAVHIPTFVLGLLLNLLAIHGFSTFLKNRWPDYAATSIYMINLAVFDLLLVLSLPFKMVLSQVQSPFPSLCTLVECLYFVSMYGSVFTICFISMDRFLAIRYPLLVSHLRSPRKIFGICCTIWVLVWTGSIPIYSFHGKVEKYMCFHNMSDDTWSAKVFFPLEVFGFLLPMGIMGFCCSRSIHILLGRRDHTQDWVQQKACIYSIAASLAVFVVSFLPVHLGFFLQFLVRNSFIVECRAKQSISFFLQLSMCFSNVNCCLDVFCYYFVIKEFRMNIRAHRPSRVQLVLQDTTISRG

For `Clc1ccccc1CN(Cc1ccco1)Cc1nnnn1C1CCCC1`, the IC50 [1] was 4.16 µM (active), the EC50 [2] was > 260 µM (inactive) and the AC50 [3] was 5.48 µM (active).

In the case of `CN(C)CCCn1c(=O)n(CCc2ccccc2)c(=O)c2c3c(sc21)CCCCC3`, the EC50 [4] is reported as 0.113 µM (active), the EC50 [5] is reported as 36.1 µM (active) and the CC50 [6] is reported as 19.1 µM (active). The CC50 [7] was 14.3 µM (active), the CC50 [8] was 12.5 µM (active) and the IC50 [9] was 21.2 µM (active). The IC50 [10] was 12.6 µM (active).

For `COc1ccc(-c2cc(N)n(S(=O)(=O)c3ccc(F)c(C)c3)n2)cc1`, the IC50 [11] was > 20 µM (inactive), the IC50 [12] was 19.9 µM (active) and the IC50 [13] was > 20 µM (inactive). The IC50 [14] was > 20 µM (inactive).

For `Nc1nc2ccccc2n1S(=O)(=O)c1ccc(F)cc1`, the IC50 [11] was 4.31 µM (active), the IC50 [12] was > 20 µM (inactive) and the IC50 [13] was > 20 µM (inactive). The IC50 [14] was > 20 µM (inactive).

With `Cn1c(SCC(=O)c2ccccc2)nnc1-c1cccc(N)c1` the IC50 [15] was > 50 µM (inactive), the IC50 [16] was > 100 µM (inactive) and the IC50 [17] was > 100 µM (inactive).
